What was measured:
Assay in all cases: Test F pre-/postemergence plant response
Assay type in all cases: in vivo
Conditions in all cases: scale 0 to 100
[1] = tested on: green foxtail (Setaria viridis)
Text: (§1) Seeds of plant species selected from corn (Zea mays), soybean (Glycine max), velvetleaf (Abutilon theophrasti), lambsquarters (Chenopodium album), wild poinsettia (Euphorbia heterophylla), palmer pigweed (Amaranthus palmeri), waterhemp (common waterhemp, Amaranthus rudis), surinam grass (Brachiaria decumbens), large (Lg) crabgrass (Digitaria sanguinalis), Brazilian crabgrass (Digitaria horizontalis), fall panicum (Panicum dichotomiflorum), giant foxtail (Setaria faberii), green foxtail (Setaria viridis), goosegrass (Eleusine indica), johnsongrass (Sorghum halepense), ragweed (common ragweed, Ambrosia elatior), barnyardgrass (Echinochloa crus-galli), sandbur (southern sandbur, Cenchrus echinatus), arrowleaf sida (Sida rhombifolia), Italian ryegrass (Lolium multiflorum), dayflower (Virginia (VA) dayflower, Commelina virginica), field bindweed (Convolvulus arvensis), cocklebur (common cocklebur, Xanthium strumarium), momingglory (Ipomoea coccinea), nightshade (eastern black nightshade, Solanum ptycanthum), kochia (Kochia scoparia), yellow nutsedge (Cyperus esculentus), and hairy beggarticks (Bidens pilosa), were planted into a silt loam soil and treated preemergence with test chemicals formulated in a non-phytotoxic solvent mixture which included a surfactant.
(§2) At the same time, plants from these crop and weed species and also waterhemp_RES1, (ALS & Triazine resistant common waterhemp, Amaranthus rudis), and waterhemp_RES2, (ALS & HPPD resistant common waterhemp, Amaranthus rudis) were treated with postemergence applications of test chemicals formulated in the same manner. Plants ranged in height from 2 to 18 cm for postemergence treatments (1- to 4-leaf stage).
(§3) Treated plants and controls were maintained in a greenhouse for 14 to 21 days, after which time all species were compared to controls and visually evaluated. Plant response ratings, summarized in Table F, are based on a scale of 0 to 100 where 0 is no effect and 100 is complete control. A dash (-) response means no test result.

[2] = tested on: lambsquarters (Chenopodium album)
Text: as §1, §2, §3

[3] = tested on: palmer pigweed (Amaranthus palmeri)
Text: as §1, §2, §3

[4] = tested on: kochia (Kochia scoparia)
Text: as §1, §2, §3

[5] = tested on: arrowleaf sida (Sida rhombifolia)
Text: as §1, §2, §3

[6] = tested on: nightshade (eastern black nightshade, Solanum ptycanthum)
Text: as §1, §2, §3

[7] = tested on: sandbur (southern sandbur, Cenchrus echinatus)
Text: as §1, §2, §3

[8] = tested on: goosegrass (Eleusine indica)
Text: as §1, §2, §3

[9] = tested on: surinam grass (Brachiaria decumbens)
Text: as §1, §2, §3

[10] = tested on: large (Lg) crabgrass (Digitaria sanguinalis)
Text: as §1, §2, §3

[11] = tested on: fall panicum (Panicum dichotomiflorum)
Text: as §1, §2, §3

[12] = tested on: Italian ryegrass (Lolium multiflorum)
Text: as §1, §2, §3

[13] = tested on: Brazilian crabgrass (Digitaria horizontalis)
Text: as §1, §2, §3

[14] = tested on: soybean (Glycine max)
Text: as §1, §2, §3

[15] = tested on: wild poinsettia (Euphorbia heterophylla)
Text: as §1, §2, §3

[16] = tested on: corn (Zea mays)
Text: as §1, §2, §3

Structure (SMILES): Fc1ccc(Oc2ncc(Cl)cn2)c(-c2cc(C(F)F)on2)c1Cl [Compound 96]
- Plant response rating, Foxtail, Green ([1]; 16 g ai/ha Preemergence): 25
- Plant response rating, Foxtail, Green ([1]; 31 g ai/ha Preemergence): 30
- Plant response rating, Foxtail, Green ([1]; 125 g ai/ha Preemergence): 25
- Plant response rating, Foxtail, Green ([1]; Preemergence): 35
- Plant response rating, Lambsquarters ([2]; 16 g ai/ha Preemergence): 5
- Plant response rating, Lambsquarters ([2]; 31 g ai/ha Preemergence): 100
- Plant response rating, Lambsquarters ([2]; 125 g ai/ha Preemergence): 100
- Plant response rating, Lambsquarters ([2]; Preemergence): 100
- Plant response rating, Pigweed, Palmer ([3]; 16 g ai/ha Postemergence): 70
- Plant response rating, Pigweed, Palmer ([3]; 16 g ai/ha Preemergence): 80
- Plant response rating, Pigweed, Palmer ([3]; 31 g ai/ha Postemergence): 80
- Plant response rating, Pigweed, Palmer ([3]; 31 g ai/ha Preemergence): 98
- Plant response rating, Pigweed, Palmer ([3]; 62 g ai/ha Postemergence): 95
- Plant response rating, Pigweed, Palmer ([3]; 125 g ai/ha Postemergence): 90
- Plant response rating, Pigweed, Palmer ([3]; 125 g ai/ha Preemergence): 100
- Plant response rating, Pigweed, Palmer ([3]; Preemergence): 100
- Plant response rating, Kochia ([4]; 16 g ai/ha Postemergence): 65
- Plant response rating, Kochia ([4]; 16 g ai/ha Preemergence): 0
- Plant response rating, Kochia ([4]; 31 g ai/ha Postemergence): 75
- Plant response rating, Kochia ([4]; 31 g ai/ha Preemergence): 0
- Plant response rating, Kochia ([4]; 62 g ai/ha Postemergence): 75
- Plant response rating, Kochia ([4]; 125 g ai/ha Postemergence): 95
- Plant response rating, Kochia ([4]; 125 g ai/ha Preemergence): 90
- Plant response rating, Kochia ([4]; Preemergence): 65
- Plant response rating, Arrowleaf Sida ([5]; 16 g ai/ha Postemergence): 70
- Plant response rating, Arrowleaf Sida ([5]; 16 g ai/ha Preemergence): 50
- Plant response rating, Arrowleaf Sida ([5]; 31 g ai/ha Postemergence): 80
- Plant response rating, Arrowleaf Sida ([5]; 31 g ai/ha Preemergence): 70
- Plant response rating, Arrowleaf Sida ([5]; 62 g ai/ha Postemergence): 90
- Plant response rating, Arrowleaf Sida ([5]; 62 g ai/ha Preemergence): 80
- Plant response rating, Arrowleaf Sida ([5]; 125 g ai/ha Postemergence): 95
- Plant response rating, Arrowleaf Sida ([5]; 125 g ai/ha Preemergence): 90
- Plant response rating, Nightshade ([6]; 16 g ai/ha Preemergence): 0
- Plant response rating, Nightshade ([6]; 31 g ai/ha Preemergence): 0
- Plant response rating, Nightshade ([6]; 125 g ai/ha Preemergence): 90
- Plant response rating, Nightshade ([6]; Preemergence): 65
- Plant response rating, Sandbur ([7]; 16 g ai/ha Postemergence): 0
- Plant response rating, Sandbur ([7]; 16 g ai/ha Preemergence): 0
- Plant response rating, Sandbur ([7]; 31 g ai/ha Postemergence): 0
- Plant response rating, Sandbur ([7]; 31 g ai/ha Preemergence): 10
- Plant response rating, Sandbur ([7]; 62 g ai/ha Postemergence): 0
- Plant response rating, Sandbur ([7]; 125 g ai/ha Postemergence): 0
- Plant response rating, Sandbur ([7]; 125 g ai/ha Preemergence): 30
- Plant response rating, Sandbur ([7]; Preemergence): 40
- Plant response rating, Goosegrass ([8]; 16 g ai/ha Preemergence): 50
- Plant response rating, Goosegrass ([8]; 31 g ai/ha Preemergence): 40
- Plant response rating, Goosegrass ([8]; 125 g ai/ha Preemergence): 60
- Plant response rating, Goosegrass ([8]; Preemergence): 40
- Plant response rating, Surinam Grass ([9]; 16 g ai/ha Preemergence): 0
- Plant response rating, Surinam Grass ([9]; 31 g ai/ha Preemergence): 0
- Plant response rating, Surinam Grass ([9]; 125 g ai/ha Preemergence): 0
- Plant response rating, Surinam Grass ([9]; Preemergence): 0
- Plant response rating, Crabgrass, Large ([10]; 16 g ai/ha Preemergence): 0
- Plant response rating, Crabgrass, Large ([10]; 31 g ai/ha Preemergence): 30
- Plant response rating, Crabgrass, Large ([10]; 62 g ai/ha Preemergence): 65
- Plant response rating, Crabgrass, Large ([10]; 125 g ai/ha Preemergence): 95
- Plant response rating, Panicum, Fall ([11]; 16 g ai/ha Postemergence): 0
- Plant response rating, Panicum, Fall ([11]; 31 g ai/ha Postemergence): 15
- Plant response rating, Panicum, Fall ([11]; 31 g ai/ha Preemergence): 40
- Plant response rating, Panicum, Fall ([11]; 62 g ai/ha Postemergence): 10
- Plant response rating, Panicum, Fall ([11]; 125 g ai/ha Postemergence): 25
- Plant response rating, Panicum, Fall ([11]; 125 g ai/ha Preemergence): 70
- Plant response rating, Panicum, Fall ([11]; Preemergence): 50
- Plant response rating, Ryegrass, Italian ([12]; 16 g ai/ha Postemergence): 0
- Plant response rating, Ryegrass, Italian ([12]; 16 g ai/ha Preemergence): 0
- Plant response rating, Ryegrass, Italian ([12]; 31 g ai/ha Postemergence): 0
- Plant response rating, Ryegrass, Italian ([12]; 31 g ai/ha Preemergence): 0
- Plant response rating, Ryegrass, Italian ([12]; 62 g ai/ha Postemergence): 0
- Plant response rating, Ryegrass, Italian ([12]; 125 g ai/ha Postemergence): 10
- Plant response rating, Ryegrass, Italian ([12]; 125 g ai/ha Preemergence): 30
- Plant response rating, Ryegrass, Italian ([12]; Preemergence): 30
- Plant response rating, Crabgrass, Brazil ([13]; 16 g ai/ha Postemergence): 0
- Plant response rating, Crabgrass, Brazil ([13]; 16 g ai/ha Preemergence): 0
- Plant response rating, Crabgrass, Brazil ([13]; 31 g ai/ha Postemergence): 5
- Plant response rating, Crabgrass, Brazil ([13]; 31 g ai/ha Preemergence): 0
- Plant response rating, Crabgrass, Brazil ([13]; 62 g ai/ha Postemergence): 20
- Plant response rating, Crabgrass, Brazil ([13]; 62 g ai/ha Preemergence): 0
- Plant response rating, Crabgrass, Brazil ([13]; 125 g ai/ha Postemergence): 25
- Plant response rating, Crabgrass, Brazil ([13]; 125 g ai/ha Preemergence): 5
- Plant response rating, Soybean ([14]; 16 g ai/ha Postemergence): 40
- Plant response rating, Soybean ([14]; 16 g ai/ha Preemergence): 0
- Plant response rating, Soybean ([14]; 31 g ai/ha Preemergence): 0
- Plant response rating, Soybean ([14]; 62 g ai/ha Postemergence): 40
- Plant response rating, Soybean ([14]; 125 g ai/ha Postemergence): 80
- Plant response rating, Soybean ([14]; 125 g ai/ha Preemergence): 0
- Plant response rating, Soybean ([14]; Preemergence): 0
- Plant response rating, Poinsettia, Wild ([15]; 16 g ai/ha Postemergence): 0
- Plant response rating, Poinsettia, Wild ([15]; 16 g ai/ha Preemergence): 0
- Plant response rating, Poinsettia, Wild ([15]; 31 g ai/ha Postemergence): 30
- Plant response rating, Poinsettia, Wild ([15]; 31 g ai/ha Preemergence): 0
- Plant response rating, Poinsettia, Wild ([15]; 62 g ai/ha Postemergence): 60
- Plant response rating, Poinsettia, Wild ([15]; 125 g ai/ha Postemergence): 50
- Plant response rating, Poinsettia, Wild ([15]; 125 g ai/ha Preemergence): 25
- Plant response rating, Poinsettia, Wild ([15]; Preemergence): 0
- Plant response rating, Corn ([16]; 16 g ai/ha Postemergence): 0
- Plant response rating, Corn ([16]; 16 g ai/ha Preemergence): 0
- Plant response rating, Corn ([16]; 31 g ai/ha Postemergence): 5
- Plant response rating, Corn ([16]; 31 g ai/ha Preemergence): 0
- Plant response rating, Corn ([16]; 62 g ai/ha Postemergence): 10
- Plant response rating, Corn ([16]; 62 g ai/ha Preemergence): 0
- Plant response rating, Corn ([16]; 125 g ai/ha Postemergence): 10
- Plant response rating, Corn ([16]; 125 g ai/ha Preemergence): 0
